The source of these data is ChEMBL document CHEMBL5223073, “Andrographolide suppresses cisplatin-induced endothelial hyperpermeability through activation of PI3K/Akt and eNOS -derived nitric oxide” (Bioorg Med Chem, 2020).

The source made the active and inactive calls. No cut-off for these calls is given here.

Data set [1] addresses T1, Nitric oxide synthase 3 (Homo sapiens) (UniProt P29474).
T1 sequence (whole entry): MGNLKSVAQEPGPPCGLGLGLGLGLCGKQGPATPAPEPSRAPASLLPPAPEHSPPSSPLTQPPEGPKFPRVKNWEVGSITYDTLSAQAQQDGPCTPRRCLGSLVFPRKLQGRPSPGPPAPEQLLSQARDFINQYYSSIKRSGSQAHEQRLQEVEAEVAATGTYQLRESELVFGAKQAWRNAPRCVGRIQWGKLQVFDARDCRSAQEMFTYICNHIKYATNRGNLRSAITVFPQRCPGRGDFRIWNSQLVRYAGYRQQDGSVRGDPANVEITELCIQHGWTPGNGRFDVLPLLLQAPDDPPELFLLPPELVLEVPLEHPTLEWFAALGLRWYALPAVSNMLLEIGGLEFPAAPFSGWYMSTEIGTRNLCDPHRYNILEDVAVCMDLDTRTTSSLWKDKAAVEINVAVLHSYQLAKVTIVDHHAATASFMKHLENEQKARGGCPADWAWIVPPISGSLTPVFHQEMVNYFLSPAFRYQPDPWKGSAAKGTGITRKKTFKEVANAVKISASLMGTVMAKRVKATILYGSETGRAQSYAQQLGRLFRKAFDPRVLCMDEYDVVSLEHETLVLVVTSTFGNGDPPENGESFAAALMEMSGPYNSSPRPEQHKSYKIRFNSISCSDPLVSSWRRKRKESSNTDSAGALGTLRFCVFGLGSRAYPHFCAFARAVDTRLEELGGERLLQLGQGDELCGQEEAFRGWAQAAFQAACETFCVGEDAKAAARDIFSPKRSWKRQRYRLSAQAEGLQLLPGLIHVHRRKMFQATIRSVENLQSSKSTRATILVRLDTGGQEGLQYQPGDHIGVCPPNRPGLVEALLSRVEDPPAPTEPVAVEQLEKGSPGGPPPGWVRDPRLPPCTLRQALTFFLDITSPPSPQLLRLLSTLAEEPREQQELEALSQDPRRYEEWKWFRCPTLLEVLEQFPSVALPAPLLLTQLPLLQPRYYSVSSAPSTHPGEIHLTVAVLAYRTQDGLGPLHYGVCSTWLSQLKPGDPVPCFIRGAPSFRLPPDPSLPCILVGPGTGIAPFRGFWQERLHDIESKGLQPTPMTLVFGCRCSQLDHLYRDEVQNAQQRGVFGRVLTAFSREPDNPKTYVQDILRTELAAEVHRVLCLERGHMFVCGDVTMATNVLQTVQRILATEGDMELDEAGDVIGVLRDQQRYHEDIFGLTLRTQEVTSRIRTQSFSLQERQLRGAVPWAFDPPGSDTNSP
As to the kind of experiment: Activation of eNOS activity in cisplatin-treated HUVEC cells assessed as increase in eNOS phosphorylation at Ser1177 residue at 30 uM preincubated with PI3K inhibitor, wortmannin followed by compound addition measured after 5 to 240 mins by Western blot analysis. In kind it is cell-based. Particulars: time 5-240 min. On the technique in general: In western blotting, separated proteins are transferred to a membrane and probed.

In data set [2] the test system is HUVEC. The experiment in a line: Inhibition of cisplatin-induced TRPC1 phosphorylation in [32P] orthophosphate labeled HUVEC cells at 30 uM incubated for 15 mins in presence of cisplatin by Western blot analysis. Format: cell-based. The note with it: Homo sapiens.
Data set [3] deals with Transcription factor p65 (Homo sapiens) (UniProt Q04206). The experiment in a line: Inhibition of cisplatin-induced phosphorylation of p65 subunit at Ser536 residue in HUVEC cells at 30 uM preincubated with PI3K inhibitor, wortmannin followed by compound addition and further incubated for 1 hr by Western blot analysis. Format: cell-based.
Data set [4] relates to HUVEC. As to the kind of experiment: Inhibition of cisplatin-induced TRPC1 phosphorylation in [32P] orthophosphate labeled HUVEC cells at 30 uM incubated for 15 mins in presence of cisplatin and eNOS inhibitor, N(G)-nitro-L-arginine methyl ester by Western blot analysis. Format: cell-based. The note with it: Homo sapiens.
In data set [5] the test system is U-937. As to the kind of experiment: Inhibition of cisplatin-induced ICAM1 dependent HUVEC cells adhesion to human U-937 cells at 10 to 30 uM preincubated with HUVEC cells for 4.5 hrs in presence of cisplatin and eNOS inhibitor, N(G)-nitro-L-arginine methyl ester followed by U-937 cell suspension addition and measured after 1 hr by BCECF fluorescent probe based assay. In kind it is functional. Particulars: dose 10-30 µM, time 5.5 hrs.

Data set [6] concerns HUVEC. As to the kind of experiment: Inhibition of cisplatin-induced PKCalpha translocation in HUVEC cells assessed as reduction in membrane PKCalpha activity at 30 uM incubated for 15 mins in presence of cisplatin by Western blot analysis. The note with it: Homo sapiens. Format: functional, cell-based.
For data set [7], the system named is U-937. The experiment in a line: Cytotoxicity against human U-937 cells assessed as reduction in cell viability at <=30 uM measured after 24 hrs by MTT assay. Format: toxicity, cell-based. The note with it: u-937, 24 h. In general terms: Tetrazolium dyes change colour on reduction, which living cells bring about.
Data set [8] concerns HUVEC. As to the kind of experiment: Activation of AKT in cisplatin-treated HUVEC cells assessed as increase in AKT phosphorylation at 30 uM pretreated with PI3K inhibitor, wortmannin followed by compound addition and measured after 240 mins by Western blot analysis. The note with it: Homo sapiens. Format: cell-based.
In data set [9] the target is Transcription factor p65 (Homo sapiens) (UniProt Q04206). The experiment in a line: Inhibition of cisplatin-induced phosphorylation of p65 subunit at Ser536 residue in HUVEC cells at 30 uM preincubated with eNOS inhibitor, N(G)-nitro-L-arginine methyl ester followed by compound addition and further incubated for 1 hr by Western blot analysis. In kind it is cell-based.

Data set [10] relates to HUVEC. The experiment in a line: Inhibition of cisplatin-induced ICAM-1 mRNA expression in HUVEC cells preincubated for 30 mins followed by cisplatin addition and measured after 24 hrs by RT-PCR analysis. In kind it is functional, cell-based. The note with it: Homo sapiens, dose 10-30 µM, time 24.5 hrs.
For data set [11], the target named is T1, Nitric oxide synthase 3 (Homo sapiens). The experiment in a line: Activation of eNOS activity in cisplatin-treated HUVEC cells assessed as increase in intracellular cGMP level incubated for 15 mins by radioimmunoassay. Format: cell-based. Particulars: filed as activator, dose 10-30 µM.
Data set [12] concerns HUVEC. As to the kind of experiment: Induction of NO production in cisplatin-treated HUVEC cells assessed as increase in fluorescence signal at 30 uM measured after 4 to 15 mins by DAF-FM dye based analysis. Format: functional, cell-based. Particulars: Homo sapiens, time 4-15 min.
For data set [13], the system named is U-937. The experiment in a line: Inhibition of cisplatin-induced ICAM1 dependent HUVEC cells adhesion to human U-937 cells at 10 to 30 uM preincubated with HUVEC cells for 4.5 hrs in presence of cisplatin and PI3K inhibitor, wortmannin followed by U-937 cell suspension addition and measured after 1 hr by BCECF fluorescent probe based assay. In kind it is functional. The note with it: dose 10-30 µM, time 5.5 hrs.

Data set [14] has as its target T2, NF-kappa-B inhibitor alpha (Homo sapiens) (UniProt P25963).
T2 sequence (whole entry): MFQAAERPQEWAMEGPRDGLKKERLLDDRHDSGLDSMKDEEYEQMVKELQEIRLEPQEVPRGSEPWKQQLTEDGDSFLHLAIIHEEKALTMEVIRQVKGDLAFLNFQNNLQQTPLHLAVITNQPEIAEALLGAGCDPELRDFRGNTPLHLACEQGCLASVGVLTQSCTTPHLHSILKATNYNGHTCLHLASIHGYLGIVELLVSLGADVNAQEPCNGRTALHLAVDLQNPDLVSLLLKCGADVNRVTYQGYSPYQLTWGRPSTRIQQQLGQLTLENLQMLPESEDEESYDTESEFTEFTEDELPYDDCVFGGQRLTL
The experiment in a line: Inhibition of cisplatin-induced phosphorylation of IkappaBalpha at Ser32/36 residue in HUVEC cells at 30 uM incubated for 1 hr by Western blot analysis. Format: cell-based.

Chain of Transcription factor p65 (Homo sapiens) (Q04206 whole entry): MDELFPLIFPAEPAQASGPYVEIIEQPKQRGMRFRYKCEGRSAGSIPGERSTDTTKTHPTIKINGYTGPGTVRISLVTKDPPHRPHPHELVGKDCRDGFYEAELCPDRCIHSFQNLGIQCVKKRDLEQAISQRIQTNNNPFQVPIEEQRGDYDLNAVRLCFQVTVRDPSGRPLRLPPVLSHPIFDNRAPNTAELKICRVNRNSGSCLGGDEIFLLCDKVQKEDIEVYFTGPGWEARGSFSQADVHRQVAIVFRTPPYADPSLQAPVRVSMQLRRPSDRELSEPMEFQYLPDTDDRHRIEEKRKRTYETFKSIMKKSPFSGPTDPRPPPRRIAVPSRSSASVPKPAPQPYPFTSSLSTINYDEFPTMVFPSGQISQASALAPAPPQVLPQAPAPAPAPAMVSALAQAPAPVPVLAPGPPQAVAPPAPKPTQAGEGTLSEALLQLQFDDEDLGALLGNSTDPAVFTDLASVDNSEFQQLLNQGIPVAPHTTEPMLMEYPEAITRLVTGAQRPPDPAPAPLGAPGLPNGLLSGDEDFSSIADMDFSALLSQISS

`C=C1CC[C@@H]2[C@](C)(CO)[C@H](O)CC[C@@]2(C)[C@@H]1C/C=C1/C(=O)OC[C@H]1O` [ANDROGRAPHOLIDE]: the result (in data set [1]; in the data set on HUVEC [8]) was inactive. The inhibition entry (with HUVEC [2]; with HUVEC [6]; in data set [14]) was “Active” throughout. Further, the inhibition entry (in [3]; in the data set with HUVEC [4]; in the data set on U-937 [5]; in [9]; in the data set on U-937 [13]) was “inactive” in each case. Besides, the results for the Activity entry (with U-937 [7]; in data set [11]) were “Non-Toxic” and “Dose-Dependent Effect”, respectively. The inhibition result in the data set with HUVEC [10] was “Dose-Dependent Effect”. For the same compound, the result in the data set with HUVEC [12] was Active.
